According to US12115209B2, “ROMO1-derived antimicrobial peptides including lysine substitution and variants thereof” (KOREA UNIVERSITY RESEARCH AND BUSINESS FOUNDATION, priority 2019, dated 2024):
No end group written: not given here.

B1: MPVAVGPYGQSQPSCFDRVKMGFVMGCAVGMAAGALFGTFSCLRIGMRGRELMGGIGKTMMQSGGTFGTFMAIGMGIRC (protein)
chain: MPVAVGPYGQSQPSCFDRVKMGFVMGCAVGMAAGALFGTFSCLRIGMRGRELMGGIGKTMMQSGGTFGTFMAIGMGIRC
modifications: Homo sapiens Romo1

Experiments:
Assay in all cases: Minimum bactericidal concentration (MBC) assay
Format in all cases: cell-based
[1] = test system: Methicillin-resistant Staphylococcus aureus (MRSA, ATCC 33591); settings: Tables 11-21, no unit printed
Description: First, each of Pseudomonas aeruginosa (ATCC 27853) and Staphylococcus aureus (ATCC 29213) was cultured in 3% (w/v) TSB (tryptic soy broth) liquid medium at 37° C. and 200 rpm for 4 hours, and then further cultured under the same conditions for 3 hours to a concentration of 5×10^6 CFU/ml. Strain solutions were prepared by diluting each of the further cultured strains with SP (sodium phosphate; 10 mM sodium phosphate, 1% TSB) buffer to a final concentration of 2×10^5 CFU/ml. […]
(§1) In addition, 30 g/L of TS (tryptic soy) and 15 g/L of agar were dissolved in distilled water and sterilized, and then 25 ml of the solution was poured onto a 100 mm round plate and solidified at room temperature for one day or more, thereby preparing a TS agar plate. 10 μl of each reaction solution of the peptide and the strain was plated on the TS agar plate at a constant size, and incubated in an incubator at 37° C. for 18 hours, and then colony formation on the plate was checked.
Specifically, each type of bacteria was cultured in 3% (w/v) TSB (tryptic soy broth) liquid medium at 37° C. and 200 rpm for 4 hours, and then further cultured under the same conditions for 3 hours to a concentration of 5×10^6 CFU/ml. Strain solutions were prepared by diluting each of the further cultured strains with SP buffer to a final concentration of 2×10^5 CFU/ml.
Then, the KU-5878 peptide at varying concentrations (0 μg/ml to 300 μg/ml) was dispensed into each well of a 96-well microplate, and 100 μl (1×10^5 CFU/ml) of each of the prepared strain solutions was added thereto, mixed therewith, and allowed to react with the peptide in an incubator at 37° C. for 1 hour.
In addition, 10 μl of each reaction solution of the peptide and the strain was plated on the TS agar plate at a constant size, and incubated in an incubator at 37° C. for 18 hours, and then colony formation on the plate was checked.

[2] = test system: Pseudomonas aeruginosa (ATCC 27853); settings: for MBC Pseudomonas aeruginosa: Tables 11-21, no unit printed
Description: (§2) First, each of Pseudomonas aeruginosa (ATCC 27853) and Staphylococcus aureus (ATCC 29213) was cultured in 3% (w/v) TSB (tryptic soy broth) liquid medium at 37° C. and 200 rpm for 4 hours, and then further cultured under the same conditions for 3 hours to a concentration of 5×10^6 CFU/ml. Strain solutions were prepared by diluting each of the further cultured strains with SP (sodium phosphate; 10 mM sodium phosphate, 1% TSB) buffer to a final concentration of 2×10^5 CFU/ml.
(§3) Then, each peptide at varying concentrations (0 μg/ml to 300 μg/ml) was dispensed into each well of a 96-well microplate, and 100 μl (1×10^5 CFU/ml) of each of the prepared strain solutions was added thereto, mixed therewith, and allowed to react with the peptide in an incubator at 37° C. for 1 hour.
as §1, with “checked. The minimum bactericidal concentration was defined as the minimum concentration of the peptide at which no colony was formed, and the experimental results are shown in Table 1 below.” for “checked.”

[3] = test system: Staphylococcus aureus (ATCC 29213); settings: for MBC Staphylococcus aureus: Tables 11-21, no unit printed
Description: as §2, §3
as §1, with “checked. The minimum bactericidal concentration was defined as the minimum concentration of the peptide at which no colony was formed, and the experimental results are shown in Table 1 below.” for “checked.”

CRPA = settings: Tables 11-21, no unit printed

Row | Molecule | MBC MRSA [1] [µg/mL] | MBC Pseudomonas aeruginosa [2] [µg/mL] | MBC Staphylococcus aureus [3] [µg/mL] | MBC CRPA (CRPA) [µg/mL] | MBC value (μg/ml) against Pseudomonas aeruginosa ([2]; ATCC 27853, reaction 37° C. 1 hour, no bovine serum) | MBC value (μg/ml) against Staphylococcus aureus ([3]; ATCC 29213, reaction 37° C. 1 hour, no bovine serum)
1 | -KMMKKGGKFGTFMAIG-GIR [Peptide K4-d58K-d75M] | 180 | 150 | 150 | 160 |  | 
2 | -TMMQSGGTFGTFMAIGMGIR [Peptide 5878-d58K] | > 300 | 300 | 300 | 300 |  | 
3 | ATMMQSGGTFGTFMAIGMGIR [KU-5878-K58A] | > 300 | > 300 | > 300 | > 300 |  | 
4 | K-MMQSGGTFGTFMAIGMGIR [Peptide 5878-d59T] | 150 | 150 | 150 | 150 |  | 
5 | KAMMQSGGTFGTFMAIGMGIR [KU-5878-T59A] | 140 | 150 | 120 | 130 |  | 
6 | KK-MKKGGKFGTFMAIG-GIR [Peptide K4-d60M-d75M] | 210 | 200 | 200 | 200 |  | 
7 | KKMMKKGGKFGT-MAIGMGIR [5878 K4-d70F] | 110 | 100 | 140 | 160 |  | 
8 | KKMMKKGGKFGTFM-IG-GIR [Peptide K4-d72A-d75M] | 200 | 200 | 200 | 200 |  | 
9 | KKMMKKGGKFGTFMA-GMGIR [Peptide 5878-K4-d73I] | > 300 | 300 | 300 | > 300 |  | 
10 | KRMMQSGGTFGTFMAIGMGIR [KU-5878-T59R] | 30 | 30 | 25 | 30 |  | 
11 | KSMMQSGGTFGTFMAIGMGIR [KU-5878-T59S] | > 300 | > 300 | > 300 | > 300 |  | 
12 | KT-MQS-GTFGTF--IG-GIR [5878-d60M, d64G, d71M, d72A, d75M] | 200 | 200 | 200 | 200 |  | 
13 | KT-MQS-GTFGTFM-IG-GIR [5878-d60M, d64G, d72A, d75M] | 120 | 120 | 100 | 120 |  | 
14 | KT-MQS-GTFGTFMAIGMGIR [5878-d60M, d64G] | 110 | 100 | 100 | 100 |  | 
15 | KT-MQSGGTFGTFM-IG-GIR [5878-d60M, d72A, d75M] | 300 | 300 | 280 | 300 |  | 
16 | KTAMQSGGTFGTFMAIGMGIR [KU-5878-M60A] | > 300 | > 300 | > 300 | > 300 |  | 
17 | KTMMASGGTFGTFMAIGMGIR [KU-5878-Q62A] | > 300 | > 300 | > 300 | > 300 |  | 
18 | KTMMKSGGTFGTFMAIGMGIR [KU-5878-Q62K] | 90 | 90 | 80 | 90 |  | 
19 | KTMMQ-GGTFGTFMAIGMGIR [Peptide 5878-d63S] | 200 | 200 | 200 | 200 |  | 
20 | KTMMQAGGTFGTFMAIGMGIR [KU-5878-S63A] | > 300 | 300 | 300 | 300 |  | 
21 | KTMMQKGGTFGTFMAIGMGIR [KU-5878-S63K] | 50 | 60 | 50 | 50 |  | 
22 | KTMMQRGGTFGTFMAIGMGIR [KU-5878-S63R] | 25 | 20 | 15 | 20 |  | 
23 | KTMMQS-GTFGTF-AIGM-IR [5878-d64G, d71M, d76G] | 200 | 200 | 200 | 200 |  | 
24 | KTMMQSGGAFGTFMAIGMGIR [KU-5878-T66A] | > 300 | > 300 | > 300 | > 300 |  | 
25 | KTMMQSGGKFGTFMAIGMGIR [KU-5878-T66K] | 80 | 80 | 60 | 70 |  | 
26 | KTMMQSGGRFGTFMAIGMGIR [KU-5878-T66R] | 90 | 80 | 90 | 80 |  | 
27 | KTMMQSGGSFGTFMAIGMGIR [KU-5878-T66S] | > 300 | > 300 | > 300 | > 300 |  | 
28 | KTMMQSGGT-GTFMAIGMGIR [Peptide 5878-d67F] | 200 | 200 | 200 | 200 |  | 
29 | KTMMQSGGTAGTFMAIGMGIR [KU-5878-F67A] | > 300 | > 300 | > 300 | > 300 |  | 
30 | B1 |  |  |  |  | Insoluble | Insoluble
